Measured values reported in the supplement of paper PMC10307832.

Tests used:
Experiment in all cases: relative viability (nuclei count vs DMSO), 5 days (fraction); higher = more cells survive
[1] = compound: C(C(=O)C(=O)O)Br [Bromopyruvate] + CC(C)C[C@H](NC(=O)[C@H](Cc1ccccc1)NC(=O)c1cnccn1)B(O)O [Bortezomib] (partner 0.002 µM)
How it was run: (§1)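 After 5 days of treatment, lung cancer cells in 1536-well plates were fixed and stained in a single step (final 0.05% Triton X-100, 1% formaldehyde, 1 ug/ml Hoechst) and their nuclei counted on 4× images. Treatment had been applied by pin tool the day after seeding as one drug alone or as a fixed anchor-drug dose with five library-drug doses (not always all listed) in √10 steps. Relative viability is the nuclei count of treated wells divided by that of vehicle wells, and values are medians of duplicate plates.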

[2] = compound: C(C(=O)C(=O)O)Br [Bromopyruvate] + Cc1nc(Nc2ncc(C(=O)Nc3c(C)cccc3Cl)s2)cc(N2CCN(CCO)CC2)n1 [Dasatinib] (partner 0.075 µM)
How it was run: as §1

[3] = compound: CC(O)(CS(=O)(=O)c1ccc(F)cc1)C(=O)Nc1ccc(C#N)c(C(F)(F)F)c1 [Bicalutamide] + CC(=O)Nc1cccc(-n2c(=O)n(C3CC3)c(=O)c3c(Nc4ccc(I)cc4F)n(C)c(=O)c(C)c32)c1 [Trametinib] (partner 0.02 µM)
How it was run: as §1

Bicalutamide + Foretinib = compound: CC(O)(CS(=O)(=O)c1ccc(F)cc1)C(=O)Nc1ccc(C#N)c(C(F)(F)F)c1 [Bicalutamide] + COc1cc2c(Oc3ccc(NC(=O)C4(C(=O)Nc5ccc(F)cc5)CC4)cc3F)ccnc2cc1OCCCN1CCOCC1 [Foretinib] (partner 0.25 µM)
How it was run: as §1

| Cell Line | relative viability ([1]; first compound 1 µM) | relative viability ([1]; first compound 3.162 µM) | relative viability ([1]; first compound 10 µM) | relative viability ([1]; first compound 31.62 µM) | relative viability ([1]; first compound 100 µM) | relative viability ([2]; first compound 1 µM) | relative viability ([2]; first compound 3.162 µM) | relative viability ([2]; first compound 10 µM) | relative viability ([2]; first compound 31.62 µM) | relative viability ([2]; first compound 100 µM) | relative viability ([3]; first compound 0.08 µM) | relative viability ([3]; first compound 0.253 µM) | relative viability ([3]; first compound 0.8 µM) | relative viability ([3]; first compound 2.53 µM) | relative viability (Bicalutamide + Foretinib; first compound 0.08 µM) | relative viability (Bicalutamide + Foretinib; first compound 0.253 µM) | relative viability (Bicalutamide + Foretinib; first compound 0.8 µM) | relative viability (Bicalutamide + Foretinib; first compound 2.53 µM) |
| --- | --- | --- | --- | --- | --- | --- | --- | --- | --- | --- | --- | --- | --- | --- | --- | --- | --- | --- |
| COR-L 105 | 0.559 | 0.876 | 0.526 | 0.769 | 0.566 | 0.336 | 0.36 | 0.294 | 0.319 | 0.195 | 0.397 | 0.371 | 0.383 | 0.381 | 1.35 | 0.976 | 0.859 | 0.784 |
| SK-LU-1 | 1.44 | 1.01 | 1.82 | 0.987 | 1.27 | 0.171 | 0.153 | 0.19 | 0.171 | 0.165 | 0.52 | 0.565 | 0.576 | 0.443 | 0.99 | 0.785 | 1.01 | 0.78 |
| LXF-289 | 1.04 | 0.966 | 0.975 | 1.03 | 1 | 0.278 | 0.214 | 0.262 | 0.27 | 0.183 | 0.667 | 0.636 | 0.734 | 0.656 | 0.955 | 0.91 | 0.939 | 0.985 |
| PC-3 [JPC-3] | 0.796 | 0.74 | 0.832 | 0.785 | 0.856 | 1.06 | 1.03 | 1.06 | 1.02 | 1.1 | 0.756 | 0.737 | 0.697 | 0.719 | 1.01 | 1.02 | 1.07 | 1.11 |
| NCI-H661 | 0.862 | 0.755 | 0.84 | 0.854 | 0.98 | 0.785 | 1.02 | 0.929 | 0.943 | 1.05 | 0.631 | 0.534 | 0.621 | 0.558 | 1.02 | 1.04 | 1.04 | 0.958 |
| NCI-H1666 | 0.804 | 0.847 | 0.638 | 0.89 | 0.819 | 0.847 | 0.839 | 0.785 | 0.855 | 0.694 | 0.926 | 0.838 | 0.866 | 0.959 | 0.927 | 0.975 | 0.913 | 0.977 |
| NCI-H2087 | 0.878 | 0.772 | 0.772 | 0.793 | 0.9 | 0.807 | 1 | 0.914 | 0.745 | 0.824 | 0.214 | 0.191 | 0.178 | 0.202 | 1.14 | 1.17 | 1.15 | 0.993 |
| NCI-H1734 | 0.984 | 0.89 | 1.11 | 0.97 | 1.09 | 0.462 | 0.436 | 0.548 | 0.44 | 0.365 | 0.709 | 0.531 | 0.681 | 0.663 | 0.925 | 0.731 | 1 | 0.809 |
